What was measured:
[1] = tested on: α1-acid glycoprotein (AGP); assay: SPR
[2] = target: human serum albumin (HSA) (Homo sapiens, UniProt P02768); assay: SPR
hCB2R [3] = target: T1, hCB2R (Homo sapiens, UniProt P34972); assay: cAMP determination assay, forskolin-stimulated HEK293-CB2R cells; conditions: for effect on forskolin-stimulated cAMP accumulation, preliminary screening: 200 nM and 1 μM; for effect on forskolin-stimulated cAMP accumulation, preliminary screening / CB2 functional profile in cAMP assay: HEK293-CB2R cells; for CB2R antagonism of CP55,940 effect in cAMP assay: CP55,940 100 nM and 1 μM, compound at 200 nM (31 also at 1 μM)
hCB2R [4] = target: T1, hCB2R; assay: [35S]-GTPγS binding assay, CB2R-containing membranes
[5] = target: human CB2 (hCB2) cannabinoid receptor (Homo sapiens, UniProt P34972); assay: [3H]-CP55,940 radioligand competition binding, hCB2 membranes
[6] = target: human CB1 (hCB1) cannabinoid receptor (Homo sapiens, UniProt P21554); assay: biochemical; assay type: binding
human CB1 receptor = human CB1 receptor (Homo sapiens, UniProt P21554); assay type: biochemical
Sequence of human CB1 receptor (P21554 whole entry): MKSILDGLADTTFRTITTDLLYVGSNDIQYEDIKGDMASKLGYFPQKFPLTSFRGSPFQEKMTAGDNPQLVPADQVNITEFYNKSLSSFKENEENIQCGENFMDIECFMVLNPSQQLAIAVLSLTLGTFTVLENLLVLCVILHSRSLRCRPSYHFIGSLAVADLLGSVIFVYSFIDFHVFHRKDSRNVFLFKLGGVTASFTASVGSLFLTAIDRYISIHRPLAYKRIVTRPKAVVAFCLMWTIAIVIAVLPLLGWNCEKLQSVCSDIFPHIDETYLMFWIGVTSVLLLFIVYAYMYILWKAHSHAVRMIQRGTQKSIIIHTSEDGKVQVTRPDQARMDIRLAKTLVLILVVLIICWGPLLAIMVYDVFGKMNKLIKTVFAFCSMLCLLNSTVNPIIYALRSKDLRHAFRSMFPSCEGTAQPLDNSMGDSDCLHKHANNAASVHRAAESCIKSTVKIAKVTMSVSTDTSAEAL

Sequence of human serum albumin (HSA) (P02768 25-609): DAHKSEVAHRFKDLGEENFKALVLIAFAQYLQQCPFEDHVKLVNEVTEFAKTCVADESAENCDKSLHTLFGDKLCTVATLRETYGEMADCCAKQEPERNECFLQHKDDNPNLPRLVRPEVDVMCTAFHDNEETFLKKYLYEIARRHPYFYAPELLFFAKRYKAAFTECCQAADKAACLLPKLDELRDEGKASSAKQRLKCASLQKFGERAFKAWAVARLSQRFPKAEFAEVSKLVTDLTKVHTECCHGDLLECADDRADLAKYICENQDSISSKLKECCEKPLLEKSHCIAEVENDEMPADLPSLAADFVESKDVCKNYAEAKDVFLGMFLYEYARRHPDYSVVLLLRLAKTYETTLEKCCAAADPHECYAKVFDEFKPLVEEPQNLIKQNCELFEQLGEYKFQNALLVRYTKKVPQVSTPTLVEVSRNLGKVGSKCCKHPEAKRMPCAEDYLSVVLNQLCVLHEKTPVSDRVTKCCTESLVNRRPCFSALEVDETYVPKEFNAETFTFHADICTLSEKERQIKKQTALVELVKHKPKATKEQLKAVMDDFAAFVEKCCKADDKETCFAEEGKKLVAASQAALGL
T1 sequence (P34972 whole entry): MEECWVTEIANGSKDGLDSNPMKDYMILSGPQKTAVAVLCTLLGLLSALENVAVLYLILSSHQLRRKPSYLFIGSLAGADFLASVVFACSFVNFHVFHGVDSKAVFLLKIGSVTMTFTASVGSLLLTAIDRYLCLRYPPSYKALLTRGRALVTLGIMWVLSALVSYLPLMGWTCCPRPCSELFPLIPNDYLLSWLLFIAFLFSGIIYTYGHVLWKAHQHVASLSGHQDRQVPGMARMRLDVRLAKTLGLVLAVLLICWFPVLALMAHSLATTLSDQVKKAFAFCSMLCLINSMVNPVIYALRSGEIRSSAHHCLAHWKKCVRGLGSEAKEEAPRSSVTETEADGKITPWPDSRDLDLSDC
Sequence of human CB1 (hCB1) cannabinoid receptor (P21554 whole entry): as the sequence (P21554 whole entry) above
Sequence of human CB2 (hCB2) cannabinoid receptor (P34972 whole entry): as the sequence (P34972 whole entry) above

CCCCC/C=C\C/C=C\C/C=C\C/C=C\CCCC(=O)NCCO [AEA, anandamide, reference compound]
AGP binding level [1]: very high

C=C(C)[C@@H]1CCC(C)=C[C@H]1c1c(O)cc(CCCCC)cc1O [CBD, cannabidiol, reference compound]
AGP binding level [1]: very high | HSA binding level [2]: high

CCCCCCC(C)(C)c1ccc([C@@H]2C[C@H](O)CC[C@H]2CCCO)c(O)c1 [CP55,940, reference compound]
HSA binding level [2]: high

CCCCC/C=C\C/C=C\C/C=C\C/C=C\CCCC(=O)OC(CO)CO [Compound 2-AG, 2-arachidonoylglycerol, reference compound]
AGP binding level [1]: very high | HSA binding level [2]: high

CCCCCCC(C)(C)c1cc(OC)c2c(c1)OC(C)(C)c1cn(C)nc1-2 [Compound 16, 7-(1,1-Dimethylheptyl)-2,4-dihydro-9-methox y-2,4,4-trimethylchromeno[4,3-c]pyrazole]
effect on forskolin-stimulated cAMP accumulation, preliminary screening (hCB2R [3]): no effect | CB2R antagonism of CP55,940 effect in cAMP assay (hCB2R [3]): able to antagonize the effect of the cannabinoid agonist CP55,940

CCCCCCC(C)(C)c1cc(OC)c2c(c1)OC(C)(C)c1cnn(CC)c1-2 [Compound 17, 7-(1,1-Dimethylheptyl)-1-ethyl-1,4-dihydro-9-methoxy-4,4-dimethylchromeno[4,3-c]pyrazole]
effect on forskolin-stimulated cAMP accumulation, preliminary screening (hCB2R [3]): low to high inhibition | CB2 functional profile in cAMP assay (hCB2R [3]): partial or weak agonists

CCCCCCC(C)(C)c1cc(OC)c2c(c1)OC(C)(C)c1cn(CC)nc1-2 [Compound 18, 7-(1,1-Dimethylheptyl)-2-ethyl-2,4-dihydro-9-methoxy-4,4-dimethylchromeno[4,3-c]pyrazole]
AGP binding level [1]: very high | HSA binding level [2]: very high | effect on forskolin-stimulated cAMP accumulation, preliminary screening (hCB2R [3]): low to high inhibition | CB2 functional profile in cAMP assay (hCB2R [3]): partial or weak agonists

CCCCCCC(C)(C)c1cc(OCc2ccccc2)c2c(c1)OC(C)(C)c1cn[nH]c1-2 [Compound 22, 9-Benzyloxy-2,4-dihydro-7 - (1,1-di m ethylheptyl)-4,4 - dimethylchromeno[4,3-c]pyrazole]
effect on forskolin-stimulated cAMP accumulation, preliminary screening (hCB2R [3]): low to high inhibition | CB2 functional profile in cAMP assay (hCB2R [3]): partial or weak agonists

CCCCCCC(C)(C)c1cc(OCCCO)c2c(c1)OC(C)(C)c1cn[nH]c1-2 [Compound 28, 7-(1,1-Dimethylheptyl)-2,4-dihydro-9-(3-hydroxypropoxy)-4,4-dimethylchromeno[4,3-c]pyrazole]
AGP binding level [1]: very high | HSA binding level [2]: very high | effect on forskolin-stimulated cAMP accumulation, preliminary screening (hCB2R [3]): low to high inhibition | CB2 functional profile in cAMP assay (hCB2R [3]): partial or weak agonists

CCCCCCC(C)(C)c1cc(OCCCO)c2c(c1)OC(C)(C)c1cn(CC)nc1-2 [Compound 31, 7-(1,1-Dimethylheptyl)-2-ethyl-2,4-dihydro-9-(3-hydroxypropoxy)-4,4-dimethylchromeno-[4,3-c]pyrazole]
effect on forskolin-stimulated cAMP accumulation, preliminary screening (hCB2R [3]): no effect | CB2R antagonism of CP55,940 effect in cAMP assay (hCB2R [3]): behaved as the CP55,940 antagonist only at the highest concentration

CCCCCCC(C)(C)c1cc(OCCO)c2c(c1)OC(C)(C)c1cn[nH]c1-2 [Compound 34, 7-(1,1-Dimethylheptyl)-2,4-dihydro-9-(2-hydroxyethoxy)-4,4-dimethylchromeno[4,3-c]pyra-zole]
IC50 (hCB2R [4]): 0.0951 ± 0.0072 µM | effect on forskolin-stimulated cAMP accumulation, preliminary screening (hCB2R [3]): low to high inhibition | CB2 functional profile in cAMP assay (hCB2R [3]): potent CB2 agonists

CCCCCCC(C)(C)c1cc(OCCO)c2c(c1)OC(C)(C)c1cn(C)nc1-2 [Compound 35, 7-(1,1-Dimethylheptyl)-2,4-dihydro-9-(2-hydroxyethoxy)-2,4,4-trimethylchromeno[4,3-c]py-razole]
effect on forskolin-stimulated cAMP accumulation, preliminary screening (hCB2R [3]): no effect | CB2R antagonism of CP55,940 effect in cAMP assay (hCB2R [3]): able to antagonize the effect of the cannabinoid agonist CP55,940

CCCCCCC(C)(C)c1cc(OCCO)c2c(c1)OC(C)(C)c1cn(CC)nc1-2 [Compound 36, 7-(1,1-Dimethylheptyl)-2-ethyl-2,4-dihydro-9-(2-hydroxyethoxy)-4,4-dimethylchromeno[4,3-c]pyrazole]
AGP binding level [1]: very high | HSA binding level [2]: very high

CCCCCCC(C)(C)c1cc(OCCCBr)c2c(c1)OC(C)(C)c1cn(C)nc1-2 [Compound 37, 9-(3-Bromopropoxy)-7-(1,1-dimethylheptyl)-2,4-dihydro-2,4,4-trimethylchromeno[4,3-c]py-razole]
AGP binding level [1]: very high | HSA binding level [2]: very high | effect on forskolin-stimulated cAMP accumulation, preliminary screening (hCB2R [3]): low to high inhibition | CB2 functional profile in cAMP assay (hCB2R [3]): partial or weak agonists

CCCCCCC(C)(C)c1cc(OCCBr)c2c(c1)OC(C)(C)c1cnn(CC)c1-2 [Compound 39, 9-(2-Bromoethoxy)-7-(1,1-dimethylheptyl)-1-ethyl-1,4-dihydro-4,4-dimethylchromeno[4,3-c]pyrazole]
Ki [5]: 0.0787 ± 0.0113 µM | AGP binding level [1]: medium | HSA binding level [2]: medium | effect on forskolin-stimulated cAMP accumulation, preliminary screening (hCB2R [3]): low to high inhibition | CB2 functional profile in cAMP assay (hCB2R [3]): partial or weak agonists | Ki [6]: 1.33 ± 0.32 µM

CCCCCCC(C)(C)c1cc2c(c3c1CCCO3)-c1c(cnn1CC)C(C)(C)O2 [Compound 40, 7-(1,1-Dimethylheptyl)-1-ethyl-1,4,9,10-tetrahydro-4,4-dimethyl-8H-pyrano[2′,3′:5,6]chrome-no[4,3-c]pyrazole]
AGP binding level [1]: medium | HSA binding level [2]: medium

CCCCCCC(C)(C)c1cc(O)c2c(c1)OC(C)(C)c1cnoc1-2 [Compound 42, 7-(1,1-Dimethylheptyl)-4,4-dimethyl-4H-chromeno[3,4-d]-isoxazol-9-ol]
AGP binding level [1]: very high | IC50 (hCB2R [4]): 0.0502 ± 0.0249 µM | HSA binding level [2]: very high | fold more potent than 10b and 22 in [35S]-GTPγS binding (CB1R) (human CB1 receptor): at least 10 fold

CCCCCCC(C)(C)c1cc(OC)c2c(c1)OC(C)(C)c1cnoc1-2 [Compound 43, 7-(1,1-Dimethylheptyl)-9-methoxy-4,4-dimethyl-4H-chromeno-[3,4-d]isoxazole]
AGP binding level [1]: medium | IC50 (hCB2R [4]): 0.0386 ± 0.0067 µM | HSA binding level [2]: medium

CCCCCCC(C)(C)c1cc(OCCCO)c2c(c1)OC(C)(C)c1cnoc1-2 [Compound 44, 7-(1,1-Dimethylheptyl)-9-(3-hydroxypropoxy)-4,4-dimethyl-4H-chromeno[3,4-d]isoxazole]
IC50 (hCB2R [4]): 0.54 ± 0.208 µM

Reference: article PMC5321205 (Journal of medicinal chemistry, 2016)
